Results reported in US10370622B2, “Soap bar having enhanced antibacterial activity” (Conopco, Inc., priority 2013, dated 2019).

Experiment: not given
Settings: in water at 25° C.; cited from earlier work

| SMILES | Ksp [mol/L] |
| --- | --- |
| O=C([O-])c1ccccc1.[Ag+] [Silver benzoate] | 2.5e-05 |
| [Cl][Ag] [Silver chloride] | 1.8e-10 |
| [Br][Ag] [Silver bromide] | 5.3e-13 |
| O=S(=O)([O-])[O-].[Ag+].[Ag+] [Silver sulfate] | 1.4e-05 |
| O=C([O-])CC(O)(CC(=O)[O-])C(=O)[O-].[Ag+].[Ag+].[Ag+] [Silver citrate] | 2.5e-18 |

Experiment: Silver ion solubility derived from solubility product (Ksp) in water at 25° C.
Settings: calculated as (Ksp·x)^(1/(x+1))

| Silver Ion Solubility [Ag+] [µM] | SMILES |
| --- | --- |
| 13 | [Cl][Ag] [Silver chloride] |
